{"source": "patent US20060030585A1", "about": "“Tricyclic delta-opioid modulators” (priority 2004, published 2006)", "key": {"delta opioid receptor": {"biological_target": "delta opioid receptor (Rattus norvegicus, UniProt P33533)", "sequence (P33533 whole entry)": "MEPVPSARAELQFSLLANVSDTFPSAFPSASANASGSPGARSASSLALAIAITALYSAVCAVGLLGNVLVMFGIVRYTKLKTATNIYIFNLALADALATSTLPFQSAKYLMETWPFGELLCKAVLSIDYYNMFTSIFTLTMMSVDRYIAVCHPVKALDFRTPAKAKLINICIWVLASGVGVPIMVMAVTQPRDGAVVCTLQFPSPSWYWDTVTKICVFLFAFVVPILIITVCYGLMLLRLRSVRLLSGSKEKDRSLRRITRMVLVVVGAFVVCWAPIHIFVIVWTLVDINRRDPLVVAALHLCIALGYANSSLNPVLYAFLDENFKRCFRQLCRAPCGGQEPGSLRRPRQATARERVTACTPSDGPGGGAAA", "assay": "Rat brain delta opioid receptor binding assay ([3H]DPDPE)", "details": "Rat delta opioid receptor binding constant; rat forebrain membranes, ~4 nM [3H]DPDPE; read-out: DOR Ki", "method_in_brief": "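Forebrain membranes from male Sprague Dawley rats in 50 mM Tris HCl pH 7.4 with 5 mM MgCl2, incubated with ~4 nM [3H]DPDPE for 2.5 h at 25° C., then filtered and counted. Single concentrations give % inhibition of specific binding; concentration ranges give Ki.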"}, "mu opioid receptor": {"biological_target": "mu opioid receptor (Rattus norvegicus, UniProt P33535)", "sequence (P33535 whole entry)": "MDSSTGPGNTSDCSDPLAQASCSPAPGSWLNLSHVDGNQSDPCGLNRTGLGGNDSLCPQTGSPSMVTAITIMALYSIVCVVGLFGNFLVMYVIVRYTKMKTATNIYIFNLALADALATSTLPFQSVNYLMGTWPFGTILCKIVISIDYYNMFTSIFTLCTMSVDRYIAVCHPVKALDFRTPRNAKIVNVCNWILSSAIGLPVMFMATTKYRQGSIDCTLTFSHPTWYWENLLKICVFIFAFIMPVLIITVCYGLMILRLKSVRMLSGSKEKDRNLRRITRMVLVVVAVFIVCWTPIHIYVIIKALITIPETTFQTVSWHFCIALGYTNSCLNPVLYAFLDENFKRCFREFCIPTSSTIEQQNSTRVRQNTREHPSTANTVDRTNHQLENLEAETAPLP", "assay": "Rat brain mu opioid receptor binding assay ([3H]DAMGO)", "details": "Rat mu opioid receptor binding constant; rat forebrain membranes, ~0.8 nM [3H]DAMGO; read-out: MOR Ki"}, "[1]": {"biological_target": "T1, delta opioid receptor (NG108-15 cell membranes) (Mus musculus, UniProt P32300)", "T1 construct": "NG108-15 cell membranes were purchased from Applied Cell Sciences (Rockville, Md.); host or cells: NG108-15 cell membranes (purchased)", "T1 sequence (P32300 whole entry)": "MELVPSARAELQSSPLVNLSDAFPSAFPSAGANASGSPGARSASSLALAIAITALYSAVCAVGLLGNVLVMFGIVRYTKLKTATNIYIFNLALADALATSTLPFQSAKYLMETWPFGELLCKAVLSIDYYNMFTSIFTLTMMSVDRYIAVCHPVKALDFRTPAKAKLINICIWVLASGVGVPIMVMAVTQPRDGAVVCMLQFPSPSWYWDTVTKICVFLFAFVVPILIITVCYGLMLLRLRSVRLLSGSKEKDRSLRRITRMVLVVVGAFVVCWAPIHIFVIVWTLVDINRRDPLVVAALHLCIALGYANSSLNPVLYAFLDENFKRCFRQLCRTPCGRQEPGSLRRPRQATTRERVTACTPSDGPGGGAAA", "assay": "[35S]GTPγS binding assay in NG108-15 cell membranes (delta opioid)", "format": "biochemical", "details": "NG108-15 cell membranes, agonist-stimulated [35S]GTPγS binding; read-out: DOR GTPγS EC50", "description": "[^35S]GTPγS Binding Assay in NG108-15 Cell Membranes (delta opioid)\nMethods: NG108-15 cell membranes were purchased from Applied Cell Sciences (Rockville, Md.). 8 mg/mL of membrane protein suspended in 10 mM TRIS-HCl pH 7.2, 2 mM EDTA, 10% sucrose. Membranes were maintained at 4-8° C. A 1 mL volume of membranes was added into 10 mL cold binding assay buffer. The assay buffer contained 50 mM Tris, pH 7.6, 5 mM MgCl2, 100 mM NaCl, 1 mM DTT and 1 mM EGTA. The membrane suspension was homogenized twice with a Polytron, and centrifuged at 3000 rpm for 10 min. The supernatant was then centrifuged at 18,000 rpm for 20 min. Ten mL assay buffer was added into the pellet containing tube. The pellet and buffer were mixed with a Polytron.\nIncubation procedure: The pellet membranes (75 μg/mL) were preincubated with SPA (10 mg/mL) at 25° C. for 45 min in the assay buffer. […] GTPγS in the same Tris buffer containing 100 μM GDP in total volume of 200 μL. Increasing concentrations of receptor agonists were used to stimulate [35S]-GTPγS binding. The basal binding was tested in the absence of agonists and non-specific binding was tested in the presence of 10 μM unlabeled GTPγS. The data were analyzed on a Packard Top Count.\n% of Basal=(stimulated−non specific)*100/(basal−non specific). EC50 value values were calculated using GraphPad Prism."}, "[2]": {"biological_target": "T2, hMOR (CHO-hMOR cell membranes) (Homo sapiens, UniProt P35372)", "T2 construct": "host or cells: CHO cells expressing hMOR (purchased membranes)", "T2 sequence (P35372 whole entry)": "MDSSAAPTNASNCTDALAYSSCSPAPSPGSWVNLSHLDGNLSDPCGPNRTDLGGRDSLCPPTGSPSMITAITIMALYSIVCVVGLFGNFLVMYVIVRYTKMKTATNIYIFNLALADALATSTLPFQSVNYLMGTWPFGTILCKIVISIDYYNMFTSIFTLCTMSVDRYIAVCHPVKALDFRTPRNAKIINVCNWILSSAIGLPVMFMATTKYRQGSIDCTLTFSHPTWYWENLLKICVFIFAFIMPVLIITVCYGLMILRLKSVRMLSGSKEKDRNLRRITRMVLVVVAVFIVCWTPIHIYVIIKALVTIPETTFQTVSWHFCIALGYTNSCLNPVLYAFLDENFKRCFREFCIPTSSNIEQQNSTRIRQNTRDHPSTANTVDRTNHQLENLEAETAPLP", "assay": "[35S]GTPγS binding assay in CHO-hMOR cell membranes", "format": "biochemical", "details": "CHO-hMOR cell membranes, [35S]GTPγS binding; read-out: hMOR GTPγS EC50", "description": "[^35]GTPγS Binding Assays in CHO-hMOR Cell Membranes\nMethods: CHO-hMOR cell membranes were purchased from Receptor Biology, Inc. (Baltimore, Md.). About 10 mg/mL of membrane protein was suspended in 10 mM TRIS-HCl pH 7.2, 2 mM EDTA, 10% sucrose, and the suspension kept on ice. A 1 mL volume of membranes was added to 15 mL cold binding assay buffer containing 50 mM HEPES, pH 7.6, 5 mM MgCl2, 100 mM NaCl, 1 mM DTT and 1 mM EDTA. The membrane suspension was homogenized with a Polytron and centrifuged at 3,000 rpm for 10 min. The supernatant was then centrifuged at 18,000 rpm for 20 min. The pellet was resuspended in 10 mL assay buffer with a Polytron. The membranes were preincubated with wheat germ agglutinin coated SPA beads (Amersham) at 25° C. for 45 min in the assay buffer. The SPA bead (5 mg/mL) coupled membranes (10 μg/mL) were then incubated with 0.5 nM [^35S]GTPγS in the assay buffer. […] A range of concentrations of receptor agonist was used to stimulate [35S]GTPγS binding. Both basal and non-specific binding was tested in the absence of agonist; non-specific binding determination included 10 μM unlabeled GTPγS.\nCompounds were tested for function as antagonists by evaluating their potential to inhibit agonist-stimulated GTPγS binding. Radioactivity was quantified on a Packard TopCount. The following parameters were calculated: [formula] [formula]\nEC50 values were calculated using GraphPad Prism."}}}
{"smiles": "CCN(CC)C(=N)c1ccc2c(c1)Oc1ccccc1C2=C1CC2CCC(C1)N2", "note": "[Cpd 126]", "values": [{"measurement": "Ki", "setting": "delta opioid receptor", "result": 1.41, "unit": "µM"}, {"measurement": "Ki", "setting": "mu opioid receptor", "result": "> 10", "unit": "µM"}, {"measurement": "EC50", "setting": "[1]", "result": "> 10", "unit": "µM"}, {"measurement": "EC50", "setting": "[2]", "result": "> 10", "unit": "µM"}]}
